Test results from patent US20230312564A1, “AROMATIC RING-LACTAM COMPOUND, PREPARATION METHOD THEREFOR AND USE THEREOF” (SHANGHAI RINGENE BIOPHARMA CO., LTD., priority 2020, published 2023).
pIC50: −log10 of the molar value.

What was measured:
[1] = tested on: Colo-205 transplanted tumor; assay: Growth inhibition of nude mice Colo-205 transplanted tumor; type: in vivo
ERK1/2 kinase = tested on: T1, ERK1/2 kinase; assay: ERK1/2 kinase (Carna) inhibitory activity, Caliper mobility shift; type: biochemical
T1 construct: fused on or other part: Carna's ERK products carry a GST tag by vendor knowledge
Procedure, shortened: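 Compounds tested from 10 μM top concentration, 3-fold dilutions to 10 points, in duplicate, in 1× kinase buffer; Caliper mobility-shift readout.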

CYP2C19 = biological target: T2, CYP2C19 (Homo sapiens, UniProt P33261); assay: Direct inhibition test (DI test) in human liver microsomes, CYP2C19; type: in vitro ADME
T2 construct: A system containing 100 μL of human liver microsomes; from tissue; host or cells: human liver microsomes
T2 sequence (P33261 whole entry): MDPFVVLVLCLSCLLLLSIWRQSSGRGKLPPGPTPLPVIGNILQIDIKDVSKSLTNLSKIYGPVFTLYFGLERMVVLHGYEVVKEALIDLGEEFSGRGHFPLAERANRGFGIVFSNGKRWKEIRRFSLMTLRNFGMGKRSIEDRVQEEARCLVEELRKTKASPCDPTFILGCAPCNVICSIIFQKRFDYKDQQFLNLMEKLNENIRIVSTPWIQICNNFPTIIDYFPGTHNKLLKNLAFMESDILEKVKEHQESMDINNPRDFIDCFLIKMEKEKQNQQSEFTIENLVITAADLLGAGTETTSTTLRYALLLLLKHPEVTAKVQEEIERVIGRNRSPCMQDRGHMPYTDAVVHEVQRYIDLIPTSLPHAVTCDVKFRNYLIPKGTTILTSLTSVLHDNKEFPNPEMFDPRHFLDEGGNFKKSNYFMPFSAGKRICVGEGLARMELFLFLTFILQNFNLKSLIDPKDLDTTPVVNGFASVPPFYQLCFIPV
Experimental: (§1) (2) Direct inhibition test (DI test): A system containing 100 μL of human liver microsomes (final concentration of 0.2 mg/mL) was subjected to a direct inhibition incubation, and the system contained NADPH (final concentration of 1 mM), 10 μM compound, positive inhibitor cocktail (10 μM ketoconazole, 10 μM quinidine, 100 μM sulfaphenazole, 10 μM α-naphthoflavone, 1,000 μM tranylcypromine), negative control (BPS of 0.1% DMSO), and mixed probe substrates (10 μM midazolam, 100 μM testosterone, 10 μM dextromethorphan, […], 100 μM phenacetin, 100 μM mephenytoin). After 20 minutes of incubation, the reaction was stopped. The relative activity of the enzyme was calculated by measuring the relative production of metabolites.

CYP1A2 = biological target: T3, CYP1A2 (Homo sapiens, UniProt P05177); assay: Direct inhibition test (DI test) in human liver microsomes, CYP1A2
T3 sequence (P05177 1-516): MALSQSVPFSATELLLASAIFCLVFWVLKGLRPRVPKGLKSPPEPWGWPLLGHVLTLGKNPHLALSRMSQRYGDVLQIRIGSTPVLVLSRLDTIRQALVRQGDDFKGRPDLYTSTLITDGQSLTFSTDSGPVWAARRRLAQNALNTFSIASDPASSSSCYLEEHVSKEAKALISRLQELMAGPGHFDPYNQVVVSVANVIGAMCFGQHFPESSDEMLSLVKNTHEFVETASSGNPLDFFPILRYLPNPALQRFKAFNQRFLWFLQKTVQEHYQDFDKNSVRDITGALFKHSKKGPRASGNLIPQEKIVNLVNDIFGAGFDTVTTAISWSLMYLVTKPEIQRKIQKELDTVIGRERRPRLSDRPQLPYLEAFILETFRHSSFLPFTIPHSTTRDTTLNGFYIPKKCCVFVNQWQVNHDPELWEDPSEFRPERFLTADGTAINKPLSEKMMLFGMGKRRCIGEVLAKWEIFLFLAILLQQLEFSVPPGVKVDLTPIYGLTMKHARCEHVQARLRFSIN
Experimental: as §1

[2] = Liver microsomal metabolic stability, mouse; type: in vitro ADME; details: liver microsomes, 0.5 mg/mL microsomes, 1 μM compound, NADPH, read-out: Liver microsomal stability T1/2
Experimental: (§2) The reaction was stopped with tinidazole-containing acetonitrile at 0 min, 5 min, 10 min and 30 min, respectively. After vortexing for 10 min and centrifuging at 15,000 rmp for 10 min, 50 μL of the supernatant was injected into a 96-well plate. The metabolic stability of the compound was calculated by determining the relative reduction of the drug, calculated as half-life T1/2.

CYP2C8 = CYP2C8 (Homo sapiens, UniProt P11712); assay: Direct inhibition test (DI test) in human liver microsomes, CYP2C8; type: in vitro ADME
Sequence of CYP2C8 (P11712 whole entry): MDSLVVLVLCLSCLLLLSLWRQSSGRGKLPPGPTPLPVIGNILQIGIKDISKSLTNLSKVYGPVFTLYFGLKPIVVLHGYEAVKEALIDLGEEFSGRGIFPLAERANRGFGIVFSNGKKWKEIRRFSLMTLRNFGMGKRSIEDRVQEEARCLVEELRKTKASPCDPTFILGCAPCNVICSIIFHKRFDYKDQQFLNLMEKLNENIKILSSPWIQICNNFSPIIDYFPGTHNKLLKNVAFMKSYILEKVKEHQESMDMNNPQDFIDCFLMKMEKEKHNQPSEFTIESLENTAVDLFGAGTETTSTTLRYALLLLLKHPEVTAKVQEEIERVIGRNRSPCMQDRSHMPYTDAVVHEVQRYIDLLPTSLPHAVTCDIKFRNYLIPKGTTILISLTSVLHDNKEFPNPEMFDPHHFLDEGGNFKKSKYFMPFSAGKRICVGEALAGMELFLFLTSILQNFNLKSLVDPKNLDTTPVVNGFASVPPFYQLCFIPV

[3] = Liver microsomal metabolic stability, rat; type: in vitro ADME; details: liver microsomes, 0.5 mg/mL microsomes, 1 μM compound, NADPH, read-out: Liver microsomal stability T1/2
Experimental: as §2

pIC50 (ERK1/2 kinase; numeric values, read-out: ERK½ IC50): > 9.00 | pIC50 (CYP2C19): < 5.00 | pIC50 (CYP1A2): < 5.00 | half-life at 1 μM [2]: 13 min | IC50 at 20 min (CYP2C8): > 10 µM | half-life at 1 μM [3]: 14 min
Compound: COc1cc(F)cc([C@@H](CO)NC(=O)[C@@H](C)N2Cc3ccc(-c4nc(NC5CCOCC5)ncc4F)c(F)c3C2=O)c1 [Embodiment 40]
T/C ([1]; 25 mg/kg, bidx21, po): 7.2% | Initial weight (D0) ([1]; 25 mg/kg, bidx21, po): 19.5 g | Terminal weight (D21) ([1]; 25 mg/kg, bidx21, po): 21.0 g | Initial tumor volume ([1]; 25 mg/kg, bidx21, po): 97 ± 26 mm^3 | Terminal tumor volume ([1]; 25 mg/kg, bidx21, po): 67 ± 14 mm^3 | T/C ([1]; 50 mg/kg, qdx21, po): 23.2% | Initial weight (D0) ([1]; 50 mg/kg, qdx21, po): 21.4 g | Terminal weight (D21) ([1]; 50 mg/kg, qdx21, po): 23.2 g | Initial tumor volume ([1]; 50 mg/kg, qdx21, po): 98 ± 22 mm^3 | Terminal tumor volume ([1]; 50 mg/kg, qdx21, po): 238 ± 130 mm^3 | effect on the tumor weight (in words) ([1]; dose of 50 mg/kg or 25 mg/kg): no significant effect on the tumor weight | tumor growth of Colo-205 transplanted tumor nude mice (in words) ([1]; dose of 50 mg/kg or 25 mg/kg): significantly inhibited the tumor growth | enzyme inhibitory activity (in words) (ERK1/2 kinase): extremely strong enzyme inhibitory activity
